Patent US20250134870A1, “PATHWAY MODULATOR, PHARMACEUTICAL COMPOSITION HAVING SAME, USE THEREOF, AND THERAPEUTIC METHOD USING SAME” (Jiangsu Yahong Meditech Co., Ltd., priority 2021, published 2025)
Read-outs that look alike come from different tables or passages of the source.

Legend:
cocaine dependence = details: used in combination with cocaine; cited from earlier work
[1] = test system: collagen-induced arthritis (CIA); assay: Collagen-induced arthritis (CIA) in mice: body weight, clinical score, AUC, incidence (Example 9); assay type: in vivo, DBA/1 mice; details: 50 mg/kg PO QD, 2 weeks
Description: DBA/1 mice were anesthetized with isoflurane and injected subcutaneously with 50 μL of prepared collagen emulsion (containing 200 μg of CII) in the tail. The day of the first immunization was recorded as Day 0, and the subsequent days were marked sequentially. On Day 21, mice were injected with a same volume of collagen emulsion in the tail.
Dosing lasted for 14 consecutive days. Compounds were prepared every 3 days and stored at 4° C.
Since Day 28, mice were weighed three times a week and clinical scores were recorded until the end of the experiment.
Clinical score: scores were given according to different degrees of lesions (redness and swelling, arthrentasis) on a scale of 0-4 points, the highest score was 4 points for each limb and 16 points for each animal.
Experimental data were represented as mean±standard error. Body weight and clinical score were analyzed by two-way ANOVA, and difference with p<0.05 was considered as significant.

[2] = test system: mesenteric lymph node immune cell subpopulations; assay: Flow cytometry of immune cell subpopulations and cytokines in mesenteric lymph nodes of DSS colitis mice (Examples 2, 4); assay type: in vivo, C57BL/6J mice; details: 30 mg/kg PO QD × 8 days (Test group 1#) vs solvent group
Description: The experimental endpoint was 24 hours after administration on Day 8 for the positive drug control group and the Test group 1 #to Test group 7 #of Example 1; the experimental endpoint of the normal group and the solvent group was the same as that of the positive drug control group and Test group 1 #to Test group 7 #.
At the experimental endpoint, mesenteric lymphatic nodes were collected and treated as follows:
1) The mesenteric lymph nodes were gently grinded and filtered with a […] strainer (BD bioscience, Catalog No. 352350) to obtain a cell suspension, and the cells were counted.
2) The cells were suspended in a suspension solution (the suspension solution was prepared by the following process: diluting the cell activation mixture with a mixture of 90 v % 1640 medium and 10 v % fetal bovine serum to a concentration of 1×), the cell density was adjusted to 2.5×10^7/mL, and the cells were incubated at 37° C. for 5 hours. 3) The cells were washed with Dulbecco's Phosphate Buffered Saline, and stained with viable/dead stain (stain No. 12 in Table 5) at room temperature for 15 min to distinguish between viable cells and dead cells; the cells were washed with staining buffer (prepared by mixing fetal bovine serum and Dulbecco's Phosphate Buffered Saline at a volume ratio of 2:98), Fc block working solution (prepared by mixing Fc block and staining buffer at a volume ratio of 1:200) was added, and the cells were incubated at room temperature for 15 minutes.
4) The cells were surface labeled with 100 μL of antibody staining solution for flow cytometry without washing and incubated at 4° C. for 30 minutes.
5) The cells were washed once with staining buffer, 100 μL of cell fixative solution was added, and the cells were incubated at 4° C. overnight.
6) 200 μL of cell permeabilization solution was added and incubated at 4° C. for 30 minutes.
7) After washing with 250 μL of cell permeabilization solution, the cells were suspended with 100 μL of staining buffer and fluorescence was detected with a BD LSRFortessa instrument.
8) The cell subpopulations analyzed by flow cytometry included CD4+ T cell subpopulation, IL-17A+CD4+ T cell subpopulation, IFN-γ+CD4+ T cell subpopulation, TNF-α+CD4+ T cell subpopulation, CD25+FOXP3+ Treg cell subpopulation; CD8+ T cell subpopulation, IL-17A+CD8+ T cell subpopulation, IFN-γ+CD8+ T cell subpopulation, TNF-α+CD8+ T cell subpopulation; CD69+B220+ B cell subpopulation and NK1.1+CD107a+ NK cell subpopulation.

[3] = test system: 2,4-dinitrobenzenesulfonic acid (DNBS)-induced colitis; assay: DNBS-induced colitis in rats: macroscopic evaluation of colon on Day 7 (colon length, weight, ulcer area, CW/CL, CW/BW, CW/CL/BW); assay type: in vivo, Wistar rats; details: for inhibition at 3 mg/kg / inhibition at 10 mg/kg / inhibition at 30 mg/kg: Rattus norvegicus, 168 h; for BW / CW/BW ×100 / Ulcer area / Ulcer length / Ulcer width: mean
Description: (3) Colon observation: after the end of the experiment, all animals were anesthetized with Zoletil (intravenous injection, 25 mg/kg) and the abdominal cavity was opened. Blood was collected from the abdominal aorta with EDTA anticoagulation (centrifugation conditions: 4° C., 2,000 g, 10 min). After the animals were sacrificed by bloodletting, the colon (from the cecum to the anus) was dissected and the colon length was measured immediately. The colon was longitudinally incised and rinsed until clean. Then the colon weight and ulcer area were recorded, and the colon was photographed as a whole and divided into three parts, among which two parts were stored at −80° C. after flash freezing with liquid nitrogen for MPO and cytokine detection, and the other part of colon was fixed with 10% neutral buffered formalin. If the ulcer was irregularly shaped, it could be considered as rectangular, and then its length and width were measured for ulcer area assessment. Ulcer area (cm^2)=ulcer length (cm)×ulcer width (cm).

[4] = G4 Test group 1#, 3 mg/kg PO QD × 7
[5] = G5 Test group 2#, 10 mg/kg PO QD × 7
[6] = G6 Test group 3#, 30 mg/kg PO QD × 7

## NCc1c[nH]c(=S)n1[C@H]1CCc2c(F)cc(F)cc2C1 [Nepicastat]
Cocaine dependence
  positive effects of cocaine: inhibit the positive effects of cocaine
[1]
  effect on collagen-induced arthritis in mice: had some known effects on collagen-induced arthritis in mice, but not as obvious as the positive control drug
[2]
  proportion of CD4+ T cell subpopulation: reduce the proportion
  proportion of CD25+FOXP3+ Treg cell subpopulation: increase the proportion
  secretion of IFN-γ by CD4+ T cell subpopulation: reduce the secretion
  secretion of IL-17A by CD4+ T cell subpopulation: reduce the secretion
  secretion of TNF-α by CD4+ T cell subpopulation: reduce the secretion
[3]; 3 mg/kg (Test group 1#), read-out: inhibition rate of CW/BW
  inhibition at 3 mg/kg: 40.2%
[3]; 3 mg/kg (Test group 1#), read-out: inhibition rate of CW/CL
  inhibition at 3 mg/kg: 30.8%
[3]; 3 mg/kg (Test group 1#), read-out: inhibition rate of CW/CL/BW
  inhibition at 3 mg/kg: 33%
[3]; 10 mg/kg (Test group 2#), read-out: inhibition rate of CW/BW
  inhibition at 10 mg/kg: 47.1%
[3]; 10 mg/kg (Test group 2#), read-out: inhibition rate of CW/CL
  inhibition at 10 mg/kg: 43.8%
[3]; 10 mg/kg (Test group 2#), read-out: inhibition rate of CW/CL/BW
  inhibition at 10 mg/kg: 45%
[3]; 30 mg/kg (Test group 3#), read-out: inhibition rate of CW/BW
  inhibition at 30 mg/kg: 39.9%
[3]; 30 mg/kg (Test group 3#), read-out: inhibition rate of CW/CL
  inhibition at 30 mg/kg: 26.7%
[3]; 30 mg/kg (Test group 3#), read-out: inhibition rate of CW/CL/BW
  inhibition at 30 mg/kg: 27.1%
[3]; G4 Test group 1#, 3 mg/kg PO QD × 7, read-out: IR1 (inhibition rate 1, CW/CL/BW)
  inhibition at 3 mg/kg: 33%
[3]; G4 Test group 1#, 3 mg/kg PO QD × 7, read-out: IR2 (inhibition rate 2, CW/BW)
  inhibition at 3 mg/kg: 40.2%
[3]; G4 Test group 1#, 3 mg/kg PO QD × 7, read-out: IR3 (inhibition rate 3, CW/CL)
  inhibition at 3 mg/kg: 30.8%
[3]; G5 Test group 2#, 10 mg/kg PO QD × 7, read-out: IR1 (inhibition rate 1, CW/CL/BW)
  inhibition at 10 mg/kg: 45%
[3]; G5 Test group 2#, 10 mg/kg PO QD × 7, read-out: IR2 (inhibition rate 2, CW/BW)
  inhibition at 10 mg/kg: 47.1%
[3]; G5 Test group 2#, 10 mg/kg PO QD × 7, read-out: IR3 (inhibition rate 3, CW/CL)
  inhibition at 10 mg/kg: 43.8%
[3]; G6 Test group 3#, 30 mg/kg PO QD × 7, read-out: IR1 (inhibition rate 1, CW/CL/BW)
  inhibition at 30 mg/kg: 27.1%
[3]; G6 Test group 3#, 30 mg/kg PO QD × 7, read-out: IR2 (inhibition rate 2, CW/BW)
  inhibition at 30 mg/kg: 39.9%
[3]; G6 Test group 3#, 30 mg/kg PO QD × 7, read-out: IR3 (inhibition rate 3, CW/CL)
  inhibition at 30 mg/kg: 26.7%
[3]; [4]
  BW: 168.65 g
  CW/BW ×100: 1.05
  Ulcer area: 1.36 cm^2
  Ulcer length: 1.08 cm
  Ulcer width: 0.87 cm
[3]; [5]
  BW: 169.54 g
  CW/BW ×100: 1.01
  Ulcer area: 1.17 cm^2
  Ulcer length: 0.97 cm
  Ulcer width: 0.73 cm
[3]; [6]
  BW: 164.62 g
  CW/BW ×100: 1.05
  Ulcer area: 1.35 cm^2
  Ulcer length: 1.09 cm
  Ulcer width: 0.95 cm
